Assay results as given in patent US10477864B2, “Microbiocidal quinoline (thio)carboxamide derivatives” (priority 2016, dated 2019).

What was measured:
[1] = tested on: Botryotinia fuckeliana (Botrytis cinerea); assay: Botryotinia fuckeliana (Botrytis cinerea) / liquid culture (gray mould); type: cell-based; settings: 72 h, read-out: control of Botryotinia fuckeliana
[2] = tested on: Fusarium culmorum; assay: microbe, parasite or virus in culture; type: cell-based; settings: read-out: control of Fusarium culmorum
[3] = tested on: Fusarium culmorum; assay: whole plant or invertebrate; type: in vivo; settings: in Triticum aestivum, read-out: control of Fusarium culmorum
[4] = tested on: Glomerella lagenarium (Colletotrichum lagenarium); assay: Glomerella lagenarium (Colletotrichum lagenarium) / liquid culture (anthracnose); type: cell-based; settings: Colletotrichum orbiculare; read-out: control of Glomerella lagenarium
[5] = tested on: Gaeumannomyces graminis; assay: Gaeumannomyces graminis / liquid culture (take-all of cereals); type: cell-based; settings: read-out: control of Gaeumannomyces graminis
[6] = tested on: Monographella nivalis (Microdochium nivale); assay: Monographella nivalis (Microdochium nivale) / liquid culture (foot rot cereals); type: cell-based; settings: 96 h, read-out: control of Monographella nivalis
[7] = tested on: Magnaporthe grisea (Pyricularia oryzae); assay: microbe, parasite or virus in culture; type: cell-based; settings: 72 h, read-out: control of Magnaporthe grisea

Compound | inhibition of growth at 200 ppm [1] [%] | inhibition of growth at 200 ppm [2] [%] | pest or weed control at 200 ppm [3] [%] | inhibition of growth at 200 ppm [4] [%] | inhibition of growth at 200 ppm [5] [%] | inhibition of growth at 200 ppm [6] [%] | inhibition of growth at 200 ppm [7] [%] | melting point [°C]
CC(C)CC(C)(Cc1ccccc1F)NC(=O)c1cnc2c(F)cccc2c1 (stereo not drawn) [Compound E-21, 8-fluoro-N-[1-[(2-fluorophenyl)methyl]-1,3-dimethyl-butyl]quinoline-3-carboxamide] | ≥ 80 | ≥ 80 | ≥ 80 | ≥ 80 | ≥ 80 | ≥ 80 | ≥ 80 | 105 to 106
C=C(C)CC(Cc1ccccc1)(NC(=O)c1cnc2c(F)cccc2c1)C1CC1 (stereo not drawn) [Compound E-53, N-(1-benzyl-1-cyclopropyl-3-methyl-but-3-enyl)-8-fluoro-quinoline-3-carboxamide] | ≥ 80 | ≥ 80 |  | ≥ 80 | ≥ 80 | ≥ 80 | ≥ 80 | 
Cc1ccccc1CC(C)(CC(C)C)NC(=O)c1cnc2c(F)cccc2c1 (stereo not drawn) [Compound E-23, N-[1,3-dimethyl-1-(o-tolylmethyl)butyl]-8-fluoro-quinoline-3-carboxamide] | ≥ 80 | ≥ 80 | ≥ 80 | ≥ 80 | ≥ 80 | ≥ 80 | ≥ 80 | 125 to 126
CC(C)CC(C)(Cc1cccc(Br)c1)NC(=O)c1cnc2c(F)cccc2c1 (stereo not drawn) [Compound E-45, N-[1-[(3-bromophenyl)methyl]-1,3-dimethyl-butyl]-8-fluoro-quinoline-3-carboxamide] | ≥ 80 | ≥ 80 |  | ≥ 80 | ≥ 80 | ≥ 80 | ≥ 80 | 87 to 89
CCCC(C)(Cc1ccccc1)NC(=O)c1cnc2c(F)cccc2c1 (stereo not drawn) [Compound E-42, N-(1-benzyl-1-methyl-butyl)-8-fluoro-quinoline-3-carboxamide] | ≥ 80 | ≥ 80 | ≥ 80 | ≥ 80 | ≥ 80 | ≥ 80 | ≥ 80 | 
C=CCC(C)(Cc1ccccc1)NC(=O)c1cnc2c(F)cccc2c1 (stereo not drawn) [Compound E-38, N-(1-benzyl-1-methyl-but-3-enyl)-8-fluoro-quinoline-3-carboxamide] | ≥ 80 | ≥ 80 | ≥ 80 | ≥ 80 | ≥ 80 | ≥ 80 | ≥ 80 | 
CC(C)CC(C)(Cc1cccc(Cl)c1)NC(=O)c1cnc2c(F)cccc2c1 (stereo not drawn) [Compound E-27, N-[1-[(3-chlorophenyl)methyl]-1,3-dimethyl-butyl]-8-fluoro-quinoline-3-carboxamide] | ≥ 80 | ≥ 80 |  | ≥ 80 | ≥ 80 | ≥ 80 | ≥ 80 | 41 to 42
CCCC(C)(Cc1ccccc1)NC(=O)c1cnc2ccccc2c1 (stereo not drawn) [Compound E-43, N-(1-benzyl-1-methyl-butyl)quinoline-3-carboxamide] | ≥ 80 | ≥ 80 | ≥ 80 | ≥ 80 | ≥ 80 | ≥ 80 | ≥ 80 | 
